Patent US20220017861A1, “UREMIC VASCULOPATHY MODEL USING ENDOTHELIAL CELLS DERIVED FROM INDUCED PLURIPOTENT STEM CELLS AND UREMIC COMPLEX, AND USE THEREOF” (SAMSUNG LIFE PUBLIC WELFARE FOUNDATION, priority 2018, published 2022)
Where a name gives a salt, the structure may show the parent alone.

Columns and labels:
Format in all cases: cell-based
[1] = test system: endothelial cells derived from normal control induced pluripotent stem cells; assay: Drug effect verification by tube formation in uremic vasculopathy endothelial cell model; details: cells exposed to uremic toxin mixture or ESKD patient serum, then treated with drug, FIG. 11
Method: (§1) In order to evaluate the functional abnormality of endothelial cells that may form vascular structures, the tube formation ability was measured. After seeding endothelial cells into a 24 or 12-well plate applied with Matrigel (Corning, catalog number CB-40234). After 16 to 24 hours of incubation, the level of tube formation was compared and analyzed.
In order to confirm whether the effect of the drug can be verified using the uremic vasculopathy endothelial cell model prepared by treating with the uremic toxin mixture of the present invention, the uremic toxin mixture of the present invention or ESKD patient's serum was applied to endothelial cells derived from normal control induced pluripotent stem cells. Then, SD-208 (TGF-β inhibitor) and losartan (angiotensin receptor blocker) were treated to measure the level of tube formation in order to examine respective effects. The endothelial cells' tube formation ability was measured and compared in the uremic toxin mixture of the present invention (UT-F, UT-H, uric acid 3 (UA 3)), serum of patients with chronic kidney disease (patient 2, patient 4), normal control serum (control 1) and cell culture medium alone (media only).

[2] = test system: endothelial cells differentiated from induced pluripotent stem cells; assay: Apoptosis of endothelial cells (Caspase-Glo 3/7 assay); details: FIG. 7
Method: , apoptosis of endothelial cell was measured according to the manufactural instructions using the Caspase-Glo 3/7 assay systems kit (Promega, catalog number G8091), and the results are shown in FIG. 4.

[3] = test system: endothelial cells differentiated from induced pluripotent stem cells; assay: Tube formation ability of endothelial cells on Matrigel; details: 16 to 24 hours of incubation on Matrigel, FIGS. 8 and 9
Method: as §1
In order to confirm the reliability and effectiveness of the uremic vasculopathy endothelial cell model prepared by treating endothelial cells with the uremic toxin mixture of the present invention, the level of tube formation was measured to compare effects of the serum of ESKD patient undergoing hemodialysis and the uremic toxin mixture of the present invention by measuring the tube formation level.

Compound	inhibition of endothelial cell tube formation after drug treatment [1]	apoptosis of endothelial cells ([2]; single uremic toxin at 1 mM)	further results
CCCCc1nc(Cl)c(CO)n1Cc1ccc(-c2ccccc2-c2nn[nH]n2)cc1 [losartan]	alleviated		
O=S(=O)(O)Oc1c[nH]c2ccccc12 [indoxyl sulfate, Indoxyl sulfate]		not significantly promoted	
O=c1[nH]c(=O)c2[nH]c(=O)[nH]c2[nH]1 [uric acid, Uric acid]		significantly promoted	tube formation ability of endothelial cells [3]: well maintained
Fc1ccc(Cl)cc1-c1nc(Nc2ccncc2)c2nccnc2n1 [SD-208]	alleviated		
NC(N)=O [urea, Urea]			apoptosis of endothelial cells ([2]; single uremic toxin at 50 mM): not significantly promoted
